Laboratory results from ChEMBL document CHEMBL4190370, “Emerging New Targets for the Treatment of Resistant Fungal Infections” (J Med Chem, 2018).
Converted amounts (≈) assume the structure as drawn.

Tests used:
Candida albicans [1] = assay: Antifungal activity against Candida albicans; assay type: functional
Candida albicans [2] = assay: Antifungal activity against fluconazole-susceptable Candida albicans isolate 9 after 24 hrs by microdilution method; assay type: functional; settings: isolate 9, 24 h
Candida albicans [3] = assay: Antifungal activity against fluconazole-susceptable Candida albicans isolate 15 after 24 hrs by microdilution method; assay type: functional; settings: isolate 15, 24 h
Candida albicans [4] = assay: Antifungal activity against fluconazole-susceptable Candida albicans isolate 5 after 24 hrs by microdilution method; assay type: functional; settings: isolate 5, 24 h
Candida albicans [5] = assay: Antifungal activity against fluconazole-resistant Candida albicans isolate 16 after 24 hrs by microdilution method; assay type: functional; settings: isolate 16, 24 h
Candida albicans [6] = assay: Antifungal activity against fluconazole-susceptable Candida albicans isolate 3 after 24 hrs by microdilution method; assay type: functional; settings: isolate 3, 24 h
Candida albicans [7] = assay: Antifungal activity against fluconazole-susceptable Candida albicans isolate 2 after 24 hrs by microdilution method; assay type: functional; settings: isolate 2, 24 h
Candida albicans [8] = assay: Antifungal activity against fluconazole-resistant Candida albicans isolate 17 after 24 hrs by microdilution method; assay type: functional; settings: isolate 17, 24 h
Candida albicans [9] = assay: Antifungal activity against fluconazole-susceptable Candida albicans isolate 1 after 24 hrs by microdilution method; assay type: functional; settings: isolate 1, 24 h
Candida albicans [10] = assay: Antifungal activity against fluconazole-susceptable Candida albicans isolate 12 after 24 hrs by microdilution method; assay type: functional; settings: isolate 12, 24 h
Candida albicans [11] = assay: Antifungal activity against fluconazole-susceptable Candida albicans isolate 8 after 24 hrs by microdilution method; assay type: functional; settings: isolate 8, 24 h
Candida albicans [12] = assay: Antifungal activity against fluconazole-susceptable Candida albicans isolate 11 after 24 hrs by microdilution method; assay type: functional; settings: isolate 11, 24 h
Candida albicans [13] = assay: Antifungal activity against fluconazole-susceptable Candida albicans isolate 6 after 24 hrs by microdilution method; assay type: functional; settings: isolate 6, 24 h
Candida albicans [14] = assay: Antifungal activity against fluconazole-susceptable Candida albicans isolate 7 after 24 hrs by microdilution method; assay type: functional; settings: isolate 7, 24 h
Candida albicans [15] = assay: Antifungal activity against fluconazole-susceptable Candida albicans isolate 4 after 24 hrs by microdilution method; assay type: functional; settings: isolate 4, 24 h
Candida albicans [16] = assay: Antifungal activity against fluconazole-susceptable Candida albicans isolate 10 after 24 hrs by microdilution method; assay type: functional; settings: isolate 10, 24 h
Candida albicans [17] = assay: Antifungal activity against fluconazole-susceptable Candida albicans isolate 14 after 24 hrs by microdilution method; assay type: functional; settings: isolate 14, 24 h
Candida albicans [18] = assay: Antifungal activity against fluconazole-susceptable Candida albicans isolate 13 after 24 hrs by microdilution method; assay type: functional; settings: isolate 13, 24 h
Cryptococcus neoformans [19] = assay: Antifungal activity against Cryptococcus neoformans H99 serotype A after 72 hrs by microdilution method; assay type: functional, Cryptococcus neoformans var. grubii H99
Candida tropicalis = assay: Antifungal activity against Candida tropicalis KKP 334 by CLSI protocol based method; assay type: functional
Candida albicans [20] = assay: Inhibition of Cch1 in Candida albicans isolate 10 assessed as potentiation of fluconazole-induced antifungal activity by measuring fractional inhibitory concentration index after 24 hrs by checkerboard assay
Candida albicans [21] = assay: Inhibition of Cch1 in Candida albicans isolate 16 assessed as potentiation of fluconazole-induced antifungal activity by measuring fractional inhibitory concentration index after 24 hrs by checkerboard assay
Saccharomyces cerevisiae [22] = assay: Synergistic antimicrobial activity against Saccharomyces cerevisiae S288c isolate at MIC concentration after 24 hrs at 30 degC in presence of G365; assay type: functional
Candida albicans [23] = assay: Synergistic antimicrobial activity against Candida albicans Ca2323 isolate at MIC concentration after 24 hrs at 30 degC in presence of G365; assay type: functional
Candida albicans [24] = assay: Synergistic antimicrobial activity against Candida albicans Ca2323 isolate at MIC concentration after 24 hrs at 30 degC in presence of G884; assay type: functional
[25] = Toxicity in ip dosed DBA/2 mouse infected with Candida albicans MY1055 administered bid for 2 days or qd for 4 days measured on day 4; assay type: organism-based; settings: in vivo
Saccharomyces cerevisiae [26] = assay: Synergistic antimicrobial activity against Saccharomyces cerevisiae S288c isolate at MIC concentration after 24 hrs at 30 degC in presence of G884; assay type: functional
[27] = Inhibition of Aspergillus fumigatus KU80UpyrG- NMT using [3H]-MCoA and CAP5.5 as substrate after 20 mins by SPA assay
Aspergillus fumigatus [28] = assay: Antifungal activity against Aspergillus fumigatus IFM 40808 after 48 hrs by broth-microdilution method; assay type: functional; settings: IFM 40808, 48 h
Cryptococcus neoformans [29] = assay: Antifungal activity against Cryptococcus neoformans; assay type: functional
Candida albicans [30] = assay: Antifungal activity against Candida albicans infected in rat model of systemic candidiasis; assay type: functional, organism-based
Aspergillus fumigatus [31] = assay: Antifungal activity against Aspergillus fumigatus; assay type: functional
Aspergillus fumigatus [32] = assay: Antifungal activity against Aspergillus fumigatus ATCC 46645 after 24 hrs; assay type: functional; settings: ATCC 46645, 24 h
[33] = Inhibition of Aspergillus fumigatus AGM1

For CC[C@@H](C)[C@@H](O)[C@H](C)C(=O)[C@H](C)/C=C(\C)C[C@H](C)C1OC(=O)[C@H]1C (some centres undefined), which MIC (Candida albicans [1]) is on record?
Its MIC is 64 µg/mL (≈ 189 µM).

Which results are given for COc1ccc2cc1Oc1ccc(cc1)C[C@@H]1c3cc(c(OC)cc3CCN1C)Oc1c(OC)c(OC)cc3c1[C@H](C2)N(C)CC3 [ISOTETRANDRINE]?
MIC80 (Candida albicans [2]): 64 µg/mL (≈ 103 µM); MIC80 (Candida albicans [3]): 64 µg/mL (≈ 103 µM); MIC80 (Candida albicans [4]): 64 µg/mL (≈ 103 µM); MIC80 (Candida albicans [5]): 64 µg/mL (≈ 103 µM); MIC80 (Candida albicans [6]): 64 µg/mL (≈ 103 µM); MIC80 (Candida albicans [7]): 64 µg/mL (≈ 103 µM); MIC80 (Candida albicans [8]): 64 µg/mL (≈ 103 µM); MIC80 (Candida albicans [9]): 64 µg/mL (≈ 103 µM); MIC80 (Candida albicans [10]): 64 µg/mL (≈ 103 µM); MIC80 (Candida albicans [11]): 64 µg/mL (≈ 103 µM); MIC80 (Candida albicans [12]): 64 µg/mL (≈ 103 µM); MIC80 (Candida albicans [13]): 64 µg/mL (≈ 103 µM); MIC80 (Candida albicans [14]): 64 µg/mL (≈ 103 µM); MIC80 (Candida albicans [15]): 64 µg/mL (≈ 103 µM); MIC80 (Candida albicans [16]): 64 µg/mL (≈ 103 µM); MIC80 (Candida albicans [17]): 64 µg/mL (≈ 103 µM); MIC80 (Candida albicans [18]): 64 µg/mL (≈ 103 µM)

With C=CC[C@@H]1/C=C(\C)C[C@H](C)C[C@H](OC)[C@H]2O[C@@](O)(C(=O)C(=O)N3CCCC[C@H]3C(=O)O[C@H](/C(C)=C/[C@@H]3CC[C@@H](O)[C@H](OC)C3)[C@H](C)[C@@H](O)CC1=O)[C@H](C)C[C@@H]2OC [TACROLIMUS ANHYDROUS] as the compound, how does the MIC (Cryptococcus neoformans [19]) read?
Its MIC is 0.01 µg/mL (≈ 0.0124 µM).

For COC(=O)c1ccc(C[C@@H](C(=O)OC)[C@@H](O)C(=O)OC)cc1, which MIC (Candida tropicalis) is on record?
Its MIC is 1000 µg/mL (≈ 3220 µM).

For Fc1ccc(C(c2ccc(F)cc2)N2CCN(C/C=C/c3ccccc3)CC2)cc1, which fractional inhibitory concentration index (FICI) (Candida albicans [20]) is on record?
Its fractional inhibitory concentration index (FICI) is 0.017 to 0.035.

What about the fractional inhibitory concentration index (FICI) (Candida albicans [21]) of the same compound?
Its fractional inhibitory concentration index (FICI) is 0.017 to 0.035.

For C=C1C2CC3[C@@H](C(C)C)[C@H](OC(=O)NCCCC)C[C@]3(C)CC2/C(C)=C\CC2[C@H](C)OC(=O)[C@@H](O)[C@@]12O (some centres undefined), which “fractional inhibitory concentration index (FICI)” value (Saccharomyces cerevisiae [22]) is on record?
The value was 0.25 - 0.313.

And the “fractional inhibitory concentration index (FICI)” value (Candida albicans [23])?
The value was 0.25 - 0.313.

What about the “fractional inhibitory concentration index (FICI)” value (Candida albicans [24]) of the same compound?
The value was 0.25 - 0.313.

What about the LD50 at 4 days [25] of the same compound?
The LD50 at 4 days was > 300 mg/kg.

And the “fractional inhibitory concentration index (FICI)” value (Saccharomyces cerevisiae [26])?
The value was 0.25 - 0.313.

With CCOC(=O)c1ccccc1S(=O)(=O)NC(=O)Nc1nc(Br)cc(OC)n1 as the compound, how does the MIC90 (Candida albicans [1]) read?
Its MIC90 is 0.72 µg/mL (≈ 1.57 µM).

With COC(=O)C1=C(C)NC(C)=C(C(=O)OC2CCCN(Cc3ccccc3)C2)C1c1cccc([N+](=O)[O-])c1 (centres undefined) as the compound, how does the fractional inhibitory concentration index (FICI) (Candida albicans [20]) read?
The fractional inhibitory concentration index (FICI) was 0.017 to 0.035.

And the fractional inhibitory concentration index (FICI) (Candida albicans [21])?
Its fractional inhibitory concentration index (FICI) is 0.017 to 0.035.

Which results are given for Cc1c(NS(=O)(=O)c2c(Cl)cc(-c3ccnc(N4CCNCC4)c3)cc2Cl)c(CC(C)C)nn1C [ZELENIRSTAT]?
IC50 [27]: 0.012 µM; MIC (Aspergillus fumigatus [28]): 925 µM (≈ 497 µg/mL)

What does the source list for Cc1c(COc2ccc(F)c(F)c2F)oc2cccc(OCCCNCc3cccnc3)c12?
MIC90 (Cryptococcus neoformans [29]): 3.13 µg/mL (≈ 6.86 µM); EC50 (Candida albicans [30]): 7.1 mg/kg; MIC (Candida albicans [1]): 0.05 µg/mL (≈ 0.11 µM); MIC (Aspergillus fumigatus [31]): 25 µg/mL (≈ 54.8 µM)

For CC1=C(O)C(=O)C=C2C1=CC=C1[C@@]2(C)CC[C@@]2(C)[C@@H]3C[C@](C)(C(=O)O)CC[C@]3(C)CC[C@]12C [CELASTROL], which MIC (Aspergillus fumigatus [32]) is on record?
Its MIC is 2 µM (≈ 0.901 µg/mL).

Which MIC (Cryptococcus neoformans [19]) does the source give for C/C=C/C[C@@H](C)[C@@H](O)[C@H]1C(=O)N[C@@H](CC)C(=O)N(C)CC(=O)N(C)[C@@H](CC(C)C)C(=O)N[C@@H](C(C)C)C(=O)N(C)[C@@H](CC(C)C)C(=O)N[C@@H](C)C(=O)N[C@H](C)C(=O)N(C)[C@@H](CC(C)C)C(=O)N(C)[C@@H](CC(C)C)C(=O)N(C)[C@@H](C(C)C)C(=O)N1C [CYCLOSPORINE] here?
Its MIC is 0.39 µg/mL (≈ 0.324 µM).

With NC(Cc1cc(O)c(O)cc1O)C(=O)O (centres undefined) as the compound, how does the IC50 [33] read?
Its IC50 is 58 µM.
